Measurements: US20240285737A1, “IMPROVED METHODS OF TREATMENT USING IMMUNOGENIC PEPTIDES” (IMCYSE SA, priority 2021, published 2024)

System: proinsulin epitope C20-A1-specific CD4+ T cells
Experiment: FACS quantification of CD4+ T cells responding to proinsulin epitope C20-A1 stimulation in PBMCs of T1D patients treated with IMP or placebo
Assay type: in vivo, human
Conditions: visits 3 to 6 (impact of administrations 3 to 6)
Method: 84 HLA DR4+ adult participants are randomly assigned (1:1:1) to one of the three treatment arms: placebo, investigational medicinal product (IMP) 450 μg and IMP 1350 μg (=the main study). All participants receive 6 administrations of IMP or placebo with a 2-week interval between each administration. At 24 weeks participants receive a boost injection. While treated participants receive a boost administration equivalent to the dose they have been randomized to, placebo participants receive a placebo boost. The participants were followed up to 48 weeks (FIG. 1).
Treatment consists of six administrations (separated by 14 days) of the IMP or the placebo by SC route. […]
Patient blood samples collected at six time points (visit V-1 or the baseline which was prior to immunization, and visits V2 to V6 which were two weeks after 2, 3, 4, 5 or 6 injections respectively) was used to quantify CD4+ T cells responding to proinsulin epitope C20-A1 stimulation. […]
Fluorescent activated cell sorting (FACS) analysis was performed to quantify CD4+ T cells that respond to proinsulin epitope stimulation. […] In a proinsulin epitope C20-A1-stimulated sample, the “net % of responding CD4+ T cells” was calculated as the % of CD4+ T cells with an effector or regulatory phenotype in the stimulated sample minus the % of CD4+ T cells with effector or regulatory phenotype in the corresponding unstimulated sample. […]

With HCPYCSLQPLALEGSLQKRG [IMP] the “net % of responding CD4+ T cells in IMP treated as compared to Placebo treated patients at individual time points” value was “trend of greater net % of responding CD4+ T cells”.
